# Source: PMC6985185 (Breast cancer research and treatment, 2019)
# Values joined by “and” are separate entries in the source; they are usually repeats but may differ in a detail not shown here. Identical values can stand only once.
# How the values were obtained:
# estrogen receptor (ER) [1] = biological target: T1, estrogen receptor (ER) (Homo sapiens, UniProt P03372); assay: Immunoblot of ER levels in TamR tumors, Study 1; conditions: 28 days of treatment
# T1 sequence (P03372 1-595): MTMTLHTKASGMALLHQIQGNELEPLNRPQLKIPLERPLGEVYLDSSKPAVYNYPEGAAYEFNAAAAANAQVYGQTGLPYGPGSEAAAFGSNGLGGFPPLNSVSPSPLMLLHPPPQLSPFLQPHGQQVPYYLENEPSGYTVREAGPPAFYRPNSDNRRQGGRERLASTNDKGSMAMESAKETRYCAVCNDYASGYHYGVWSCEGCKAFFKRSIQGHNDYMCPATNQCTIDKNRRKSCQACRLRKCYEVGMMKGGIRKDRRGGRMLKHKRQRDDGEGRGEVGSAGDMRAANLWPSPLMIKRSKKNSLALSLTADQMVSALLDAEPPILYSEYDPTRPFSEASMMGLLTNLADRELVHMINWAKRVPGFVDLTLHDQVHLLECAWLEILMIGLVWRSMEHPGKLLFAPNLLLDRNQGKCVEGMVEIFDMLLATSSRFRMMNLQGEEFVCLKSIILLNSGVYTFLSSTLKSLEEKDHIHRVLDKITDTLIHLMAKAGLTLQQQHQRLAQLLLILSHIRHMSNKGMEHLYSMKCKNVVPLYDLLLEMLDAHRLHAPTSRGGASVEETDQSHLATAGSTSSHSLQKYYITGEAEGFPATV
# breast cancer [2] = conditions: 250 mg monthly; patients that had already progressed during AI treatment; cited from earlier work
# [3] = system: ER target genes AGR2, AGR3, and KRT13; assay: RT-qPCR of tamoxifen responsive ER target genes in TamR tumors; assay type: in vivo, Nu:J mice
# [4] = current clinical protocol; cited from earlier work
# [5] = system: HCC1428 breast cancer xenograft tumors; assay: HCC1428 Study: growth of estrogen dependent xenograft tumors; assay type: in vivo, Nu:J mice; conditions: 25 mg/kg sc qw, 4 weeks; ovariectomized mice receiving oral estradiol
# estrogen receptor (ER) [6] = biological target: T1, estrogen receptor (ER); assay: Immunoblot of ER levels in HCC1428 tumors; conditions: 25 mg/kg sc qw, 4 weeks
# breast cancer [7] = conditions: 500 vs 250 mg/month, loading regimen 500 mg on d1, d14, d29; cited from earlier work
# uterus = assay: Uterine wet weight in LTED tumor bearing mice; assay type: in vivo, Nu:J mice; conditions: ovariectomized LTED tumor bearing mice, after 4 weeks of treatment at the LTED study doses
# [8] = Circulating plasma levels of fulvestrant at euthanasia, TamR Study 1 (LC/MS/MS); assay type: in vivo, Nu:J mice; conditions: female, Nu/J, mouse, subcutaneous
# [9] = system: TamR (tamoxifen resistant) xenograft tumors; assay: TamR Study 1: growth of tamoxifen-resistant xenograft tumors under fulvestrant; assay type: in vivo, Nu:J mice
# [10] = Circulating plasma levels of fulvestrant after a single injection (LC/MS/MS); assay type: in vivo, Nu:J mice; conditions: single injection of 25 or 200 mg/kg; plasma collected 1, 3, 5, or 7 days after administration
# ER = conditions: months of treatment with originally approved 250 mg/month regimen; cited from earlier work
# [11] = all doses administered (25-200 mg/kg)
structure (smiles),measurement,setting,value
"C[C@]12CC[C@@H]3c4ccc(O)cc4C[C@@H](CCCCCCCCC[S+]([O-])CCCC(F)(F)C(F)(F)F)[C@H]3[C@@H]1CC[C@@H]2O (stereo partly shown) [Fulvestrant, fulvestrant]",ER downregulation in TamR tumors (immunoblot),estrogen receptor (ER) [1]; 25 mg/kg dose,did not result in significant ER downregulation
same,ER downregulation in TamR tumors (immunoblot),"estrogen receptor (ER) [1]; 50, 100, and 200 mg/kg doses",Significant (p < 0.001) downregulation of ER
same,Response rate in the EFFECT trial,breast cancer [2],7.4%
same,mRNA expression of anterior gradient protein 3 (AGR3) in TamR tumors,[3]; [11],dramatic downregulation
same,mRNA expression of keratin 13 (KRT13) in TamR tumors,[3]; [11],dramatic downregulation
same,mRNA expression of AGR2 in TamR tumors,[3]; only for doses that resulted in quantitative downregulation of ER protein,modest reduction in AGR2 expression
same,Cmax observed per current protocol in patients,[4],~0.028 µg/mL
same,Effect on HCC1428 xenograft tumor growth,[5],Tumor stasis
same,ER expression in HCC1428 tumors (western blotting),estrogen receptor (ER) [6],modest but significant downregulation of ER expression
same,Clinical response to higher dose with loading regimen,breast cancer [7],improved response rate and increased time to progression
same,Uterine wet weight (measure of uterine stimulation),uterus,non-significant trend toward reduced uterine weight
same,concentration at 7 days after final dose,[8]; 25 mg/kg,34.6 ng/mL and 57 nM
same,concentration at 7 days after final dose,[8]; 50 mg/kg,64.9 ng/mL and 107 nM
same,concentration at 7 days after final dose,[8]; 100 mg/kg,95.6 ng/mL and 157 nM
same,concentration at 7 days after final dose,[8]; 200 mg/kg,207 ng/mL and 340 nM
same,Inhibition of TamR tumor growth vs vehicle control,"[9]; 4 weekly injections of 25, 50, 100, or 200 mg/kg (all doses), no significant differences between doses",significant inhibition of tumor growth
same,% tumor growth inhibition of TamR tumors,"[9]; fulvestrant 25 mg/kg sc weekly, day 0 of treatment",−1%
same,% tumor growth inhibition of TamR tumors,"[9]; fulvestrant 25 mg/kg sc weekly, day 2 of treatment",25%
same,% tumor growth inhibition of TamR tumors,"[9]; fulvestrant 25 mg/kg sc weekly, day 4 of treatment",20%
same,% tumor growth inhibition of TamR tumors,"[9]; fulvestrant 25 mg/kg sc weekly, day 7 of treatment",21%
same,% tumor growth inhibition of TamR tumors,"[9]; fulvestrant 25 mg/kg sc weekly, day 9 of treatment",18%
same,% tumor growth inhibition of TamR tumors,"[9]; fulvestrant 25 mg/kg sc weekly, day 11 of treatment",24%
same,% tumor growth inhibition of TamR tumors,"[9]; fulvestrant 25 mg/kg sc weekly, day 14 of treatment",33%
same,% tumor growth inhibition of TamR tumors,"[9]; fulvestrant 25 mg/kg sc weekly, day 16 of treatment",29%
same,% tumor growth inhibition of TamR tumors,"[9]; fulvestrant 25 mg/kg sc weekly, day 18 of treatment",39%
same,% tumor growth inhibition of TamR tumors,"[9]; fulvestrant 25 mg/kg sc weekly, day 21 of treatment",44%
same,% tumor growth inhibition of TamR tumors,"[9]; fulvestrant 25 mg/kg sc weekly, day 23 of treatment",45%
same,% tumor growth inhibition of TamR tumors,"[9]; fulvestrant 25 mg/kg sc weekly, day 25 of treatment",47%
same,% tumor growth inhibition of TamR tumors,"[9]; fulvestrant 25 mg/kg sc weekly, day 28 of treatment",47%
same,% tumor growth inhibition of TamR tumors,"[9]; fulvestrant 50 mg/kg sc weekly, day 0 of treatment",−1%
same,% tumor growth inhibition of TamR tumors,"[9]; fulvestrant 50 mg/kg sc weekly, day 2 of treatment",24%
same,% tumor growth inhibition of TamR tumors,"[9]; fulvestrant 50 mg/kg sc weekly, day 4 of treatment",20%
same,% tumor growth inhibition of TamR tumors,"[9]; fulvestrant 50 mg/kg sc weekly, day 7 of treatment",26%
same,% tumor growth inhibition of TamR tumors,"[9]; fulvestrant 50 mg/kg sc weekly, day 9 of treatment",28%
same,% tumor growth inhibition of TamR tumors,"[9]; fulvestrant 50 mg/kg sc weekly, day 11 of treatment",31%
same,% tumor growth inhibition of TamR tumors,"[9]; fulvestrant 50 mg/kg sc weekly, day 14 of treatment",37%
same,% tumor growth inhibition of TamR tumors,"[9]; fulvestrant 50 mg/kg sc weekly, day 16 of treatment",40%
same,% tumor growth inhibition of TamR tumors,"[9]; fulvestrant 50 mg/kg sc weekly, day 18 of treatment",44%
same,% tumor growth inhibition of TamR tumors,"[9]; fulvestrant 50 mg/kg sc weekly, day 21 of treatment",51%
same,% tumor growth inhibition of TamR tumors,"[9]; fulvestrant 50 mg/kg sc weekly, day 23 of treatment",58%
same,% tumor growth inhibition of TamR tumors,"[9]; fulvestrant 50 mg/kg sc weekly, day 25 of treatment",59%
same,% tumor growth inhibition of TamR tumors,"[9]; fulvestrant 50 mg/kg sc weekly, day 28 of treatment",62%
same,% tumor growth inhibition of TamR tumors,"[9]; fulvestrant 100 mg/kg sc weekly, day 0 of treatment",−3%
same,% tumor growth inhibition of TamR tumors,"[9]; fulvestrant 100 mg/kg sc weekly, day 2 of treatment",23%
same,% tumor growth inhibition of TamR tumors,"[9]; fulvestrant 100 mg/kg sc weekly, day 4 of treatment",20%
same,% tumor growth inhibition of TamR tumors,"[9]; fulvestrant 100 mg/kg sc weekly, day 7 of treatment",27%
same,% tumor growth inhibition of TamR tumors,"[9]; fulvestrant 100 mg/kg sc weekly, day 9 of treatment",16%
same,% tumor growth inhibition of TamR tumors,"[9]; fulvestrant 100 mg/kg sc weekly, day 11 of treatment",32%
same,% tumor growth inhibition of TamR tumors,"[9]; fulvestrant 100 mg/kg sc weekly, day 14 of treatment",44%
same,% tumor growth inhibition of TamR tumors,"[9]; fulvestrant 100 mg/kg sc weekly, day 16 of treatment",36%
same,% tumor growth inhibition of TamR tumors,"[9]; fulvestrant 100 mg/kg sc weekly, day 18 of treatment",50%
same,% tumor growth inhibition of TamR tumors,"[9]; fulvestrant 100 mg/kg sc weekly, day 21 of treatment",46%
same,% tumor growth inhibition of TamR tumors,"[9]; fulvestrant 100 mg/kg sc weekly, day 23 of treatment",53%
same,% tumor growth inhibition of TamR tumors,"[9]; fulvestrant 100 mg/kg sc weekly, day 25 of treatment",49%
same,% tumor growth inhibition of TamR tumors,"[9]; fulvestrant 100 mg/kg sc weekly, day 28 of treatment",58%
same,% tumor growth inhibition of TamR tumors,"[9]; fulvestrant 200 mg/kg sc weekly, day 0 of treatment",2%
same,% tumor growth inhibition of TamR tumors,"[9]; fulvestrant 200 mg/kg sc weekly, day 2 of treatment",28%
same,% tumor growth inhibition of TamR tumors,"[9]; fulvestrant 200 mg/kg sc weekly, day 4 of treatment",24%
same,% tumor growth inhibition of TamR tumors,"[9]; fulvestrant 200 mg/kg sc weekly, day 7 of treatment",24%
same,% tumor growth inhibition of TamR tumors,"[9]; fulvestrant 200 mg/kg sc weekly, day 9 of treatment",25%
same,% tumor growth inhibition of TamR tumors,"[9]; fulvestrant 200 mg/kg sc weekly, day 11 of treatment",39%
same,% tumor growth inhibition of TamR tumors,"[9]; fulvestrant 200 mg/kg sc weekly, day 14 of treatment",47%
same,% tumor growth inhibition of TamR tumors,"[9]; fulvestrant 200 mg/kg sc weekly, day 16 of treatment",48%
same,% tumor growth inhibition of TamR tumors,"[9]; fulvestrant 200 mg/kg sc weekly, day 18 of treatment",53%
same,% tumor growth inhibition of TamR tumors,"[9]; fulvestrant 200 mg/kg sc weekly, day 21 of treatment",61%
same,% tumor growth inhibition of TamR tumors,"[9]; fulvestrant 200 mg/kg sc weekly, day 23 of treatment",66%
same,% tumor growth inhibition of TamR tumors,"[9]; fulvestrant 200 mg/kg sc weekly, day 25 of treatment",67%
same,% tumor growth inhibition of TamR tumors,"[9]; fulvestrant 200 mg/kg sc weekly, day 28 of treatment",74%
same,Time of highest plasma level after single injection,[10],highest levels detected one day after administration
same,Patients exhibiting intratumoral [(18)F]fluoroestradiol (FES) binding during follow up PET scans,ER,30%
